According to publication PMC9005681, “Use of AD Informer Set compounds to explore validity of novel targets in Alzheimer's disease pathology” (Alzheimer's & Dementia : Translational Research & Clinical …, 2022):
Where “and” joins values, the source holds several entries; their conditions need not be identical. Identical values can stand only once.

Columns and labels:
Experiment in all cases: PDSP GPCR panel primary binding assays at 10 μM
[1] = target: T1, cloned human or rodent CNS receptors, channels, and transporters (PDSP panel) (Homo sapiens, UniProt P08172); conditions: M2, primary assay
T1 construct: expressed in transfected cells
T1 sequence (P08172 1-466): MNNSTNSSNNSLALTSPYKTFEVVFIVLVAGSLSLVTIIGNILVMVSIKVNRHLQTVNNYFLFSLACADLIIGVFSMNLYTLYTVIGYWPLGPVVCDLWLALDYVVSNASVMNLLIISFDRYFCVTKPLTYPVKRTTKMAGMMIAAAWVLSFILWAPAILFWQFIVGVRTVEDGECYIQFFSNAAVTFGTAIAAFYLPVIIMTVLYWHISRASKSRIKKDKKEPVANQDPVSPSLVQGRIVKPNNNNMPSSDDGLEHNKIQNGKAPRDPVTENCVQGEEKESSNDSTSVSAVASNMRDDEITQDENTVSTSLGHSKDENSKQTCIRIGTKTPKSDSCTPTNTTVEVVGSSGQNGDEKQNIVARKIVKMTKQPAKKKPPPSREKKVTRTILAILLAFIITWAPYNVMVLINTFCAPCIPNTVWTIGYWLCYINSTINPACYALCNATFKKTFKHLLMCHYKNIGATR
Method in brief: (§1)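 Each compound is first screened once at 10 μM, in quadruplicate, for radioligand displacement. Where mean displacement passes 50%, an 11-point dose-response in triplicate follows at that target, except at H3, PBR and GABAA.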

[2] = target: T2, cloned human or rodent CNS receptors, channels, and transporters (PDSP panel) (Homo sapiens, UniProt P21918); conditions: D5, primary assay
T2 construct: expressed in transfected cells
Method in brief: as §1

[3] = target: T3, cloned human or rodent CNS receptors, channels, and transporters (PDSP panel) (Homo sapiens, UniProt P28221); conditions: 5-HT1D, primary assay
T3 construct: expressed in transfected cells
Method in brief: as §1

[4] = target: T4, cloned human or rodent CNS receptors, channels, and transporters (PDSP panel) (Homo sapiens, UniProt P35368); conditions: Alpha1B, primary assay
T4 construct: expressed in transfected cells
T4 sequence (P35368 1-520): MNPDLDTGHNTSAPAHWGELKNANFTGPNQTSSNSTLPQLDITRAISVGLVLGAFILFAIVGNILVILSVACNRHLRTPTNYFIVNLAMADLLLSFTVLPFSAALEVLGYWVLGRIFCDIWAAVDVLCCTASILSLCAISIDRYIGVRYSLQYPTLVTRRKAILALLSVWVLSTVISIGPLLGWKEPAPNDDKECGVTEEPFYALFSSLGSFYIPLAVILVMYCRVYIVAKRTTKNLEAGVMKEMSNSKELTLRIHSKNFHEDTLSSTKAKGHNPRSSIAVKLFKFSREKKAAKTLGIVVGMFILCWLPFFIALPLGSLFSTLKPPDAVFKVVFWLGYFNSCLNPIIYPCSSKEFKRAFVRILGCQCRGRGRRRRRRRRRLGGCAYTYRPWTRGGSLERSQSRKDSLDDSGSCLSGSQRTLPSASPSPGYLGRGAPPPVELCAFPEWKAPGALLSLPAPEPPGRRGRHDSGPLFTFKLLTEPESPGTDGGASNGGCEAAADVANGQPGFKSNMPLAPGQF
Method in brief: as §1

[5] = system: cloned human or rodent CNS receptors, channels, and transporters (PDSP panel); conditions: primary assay; for Mean %: mean inhibition; for Inhibition 1: replicate 1; for Inhibition 2: replicate 2; for Inhibition 3: replicate 3; for Inhibition 4: replicate 4
Method in brief: as §1

T2 sequence (P21918 whole entry): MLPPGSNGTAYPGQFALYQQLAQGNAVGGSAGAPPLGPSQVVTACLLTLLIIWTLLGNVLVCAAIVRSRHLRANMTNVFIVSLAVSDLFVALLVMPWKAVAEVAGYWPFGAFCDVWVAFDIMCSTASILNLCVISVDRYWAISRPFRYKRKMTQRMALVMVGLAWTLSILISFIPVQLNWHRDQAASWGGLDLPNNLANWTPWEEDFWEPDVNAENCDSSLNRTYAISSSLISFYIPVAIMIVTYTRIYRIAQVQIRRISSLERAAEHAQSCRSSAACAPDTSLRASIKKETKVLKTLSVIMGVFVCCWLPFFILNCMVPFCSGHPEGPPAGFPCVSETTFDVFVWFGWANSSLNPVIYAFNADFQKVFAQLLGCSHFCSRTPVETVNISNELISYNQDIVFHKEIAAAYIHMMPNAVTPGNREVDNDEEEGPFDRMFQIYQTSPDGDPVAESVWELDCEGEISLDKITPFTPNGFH
T3 sequence (P28221 whole entry): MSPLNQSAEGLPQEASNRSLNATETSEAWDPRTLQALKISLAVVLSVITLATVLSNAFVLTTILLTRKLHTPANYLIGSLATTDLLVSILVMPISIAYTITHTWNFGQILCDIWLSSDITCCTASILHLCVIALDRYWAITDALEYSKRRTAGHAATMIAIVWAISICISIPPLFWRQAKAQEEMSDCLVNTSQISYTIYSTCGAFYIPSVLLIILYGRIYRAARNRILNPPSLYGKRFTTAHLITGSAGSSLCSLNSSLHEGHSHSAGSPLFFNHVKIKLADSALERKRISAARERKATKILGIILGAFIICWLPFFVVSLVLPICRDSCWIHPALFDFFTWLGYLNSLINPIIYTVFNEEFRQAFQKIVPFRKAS

Which Mean % ([1]; mean inhibition) does the source give for MDL 28170 [UNC10302675A] here?
The Mean % was 1.32%.

And the “Inhibition 1” value ([1]; replicate 1)?
The value was -8.82%.

And the “Inhibition 2” value ([1]; replicate 2)?
Its value is -11.77%.

And the “Inhibition 3” value ([1]; replicate 3)?
Its value is 0.03%.

What about the “Inhibition 4” value ([1]; replicate 4) of the same substance?
Its value is 25.84%.

What about the Mean % ([2]; mean inhibition) of the same substance?
The Mean % was 3.1%.

What about the “Inhibition 1” value ([2]; replicate 1) of the same substance?
Its value is 35%.

And the “Inhibition 2” value ([2]; replicate 2)?
The value was -0.46%.

What about the “Inhibition 3” value ([2]; replicate 3) of the same substance?
Its value is -13.75%.

And the “Inhibition 4” value ([2]; replicate 4)?
Its value is -8.4%.

And the Mean % ([3]; mean inhibition)?
The Mean % was 5%.

And the “Inhibition 1” value ([3]; replicate 1)?
The value was 13.22%.

What about the “Inhibition 2” value ([3]; replicate 2) of the same substance?
The value was 2.39%.

What about the “Inhibition 3” value ([3]; replicate 3) of the same substance?
Its value is 4.89%.

What about the “Inhibition 4” value ([3]; replicate 4) of the same substance?
The value was -0.52%.

And the Mean % ([4]; mean inhibition)?
Its Mean % is -5.99%.

And the “Inhibition 1” value ([4]; replicate 1)?
The value was -0.72%.

What about the “Inhibition 2” value ([4]; replicate 2) of the same substance?
The value was -4.38%.

And the “Inhibition 3” value ([4]; replicate 3)?
The value was -14.01%.

What about the “Inhibition 4” value ([4]; replicate 4) of the same substance?
Its value is -4.84%.

And the Mean % ([5]; Alpha1A)?
Its Mean % is 5.14%.

And the “Inhibition 1” value ([5]; Alpha1A)?
The value was 14.68%.

And the “Inhibition 2” value ([5]; Alpha1A)?
Its value is -1.03%.

What about the “Inhibition 3” value ([5]; Alpha1A) of the same substance?
Its value is -8.14%.

What about the “Inhibition 4” value ([5]; Alpha1A) of the same substance?
The value was 15.06%.

And the Mean % ([5]; Alpha2A)?
Its Mean % is -0.83%.

What about the “Inhibition 1” value ([5]; Alpha2A) of the same substance?
The value was 3.33%.

What about the “Inhibition 2” value ([5]; Alpha2A) of the same substance?
The value was -2.81%.

And the “Inhibition 3” value ([5]; Alpha2A)?
Its value is -6.74%.

And the “Inhibition 4” value ([5]; Alpha2A)?
Its value is 2.9%.

What about the Mean % ([5]; Alpha2C) of the same substance?
The Mean % was -3.61%.

And the “Inhibition 1” value ([5]; Alpha2C)?
The value was -3.7%.

What about the “Inhibition 2” value ([5]; Alpha2C) of the same substance?
The value was -0.8%.

And the “Inhibition 3” value ([5]; Alpha2C)?
Its value is -1.62%.

What about the “Inhibition 4” value ([5]; Alpha2C) of the same substance?
Its value is -8.31%.

And the Mean % ([5]; BZP Rat Brain Site)?
The Mean % was 7.23%.

And the “Inhibition 1” value ([5]; BZP Rat Brain Site)?
Its value is 18.74%.

And the “Inhibition 2” value ([5]; BZP Rat Brain Site)?
The value was 4.91%.

And the “Inhibition 3” value ([5]; BZP Rat Brain Site)?
Its value is -1.16%.

What about the “Inhibition 4” value ([5]; BZP Rat Brain Site) of the same substance?
Its value is 6.42%.

What about the Mean % ([5]; DOR) of the same substance?
Its Mean % is -10.37%.

What about the “Inhibition 1” value ([5]; DOR) of the same substance?
The value was -5.94%.

And the “Inhibition 2” value ([5]; DOR)?
The value was -12.45%.

What about the “Inhibition 3” value ([5]; DOR) of the same substance?
The value was -15.16%.

And the “Inhibition 4” value ([5]; DOR)?
Its value is -7.93%.

And the “Inhibition 1” value ([5]; GABAA)?
The value was 16.54% and -28.18%.

What about the “Inhibition 2” value ([5]; GABAA) of the same substance?
The value was 2.5% and -11.42%.

What about the “Inhibition 3” value ([5]; GABAA) of the same substance?
The value was 1.02% and 0%.

What about the “Inhibition 4” value ([5]; GABAA) of the same substance?
Its value is 29.11% and -5.47%.

What about the Mean % ([5]; H3) of the same substance?
The Mean % was 9.84%.

And the “Inhibition 1” value ([5]; H3)?
Its value is 9.54%.

What about the “Inhibition 2” value ([5]; H3) of the same substance?
Its value is 0.8%.

And the “Inhibition 3” value ([5]; H3)?
Its value is 7.8%.

What about the “Inhibition 4” value ([5]; H3) of the same substance?
The value was 21.2%.

And the Mean % ([5]; H4)?
The Mean % was -7.26%.

And the “Inhibition 1” value ([5]; H4)?
The value was -26.58%.

What about the “Inhibition 2” value ([5]; H4) of the same substance?
The value was 0.78%.

And the “Inhibition 3” value ([5]; H4)?
Its value is -5.94%.

And the “Inhibition 4” value ([5]; H4)?
The value was 2.7%.

And the Mean % ([5]; Sigma 1)?
Its Mean % is 5.78%.

And the Mean % ([5]; Sigma 2)?
The Mean % was 26.55%.
